Where two headings read alike, the source gives them in different places.
Assays:
HDAC6 = conditions: cited from earlier work
human HDAC1 = human HDAC1 (Homo sapiens, UniProt Q13547); experiment: In vitro inhibitory activity on purified recombinant HDAC1 (fluorogenic peptide assay, Reaction Biology Corp.)
Description: (§1) In vitro tests on HDAC6, HDAC1 and HDAC8 were performed at Reaction Biology Corp. with modalities described below. […] The compounds were dissolved in DMSO and tested with 3-fold serial dilution starting from 100 μM. The enzymatic assays were performed by adding HDAC6 and the ligand solutions in the reaction buffer described above. […] IC50 values were calculated by using the GraphPad Prism 4 program based on a sigmoidal dose–response equation. The blank (DMSO) value concentration was entered as 1.00 × 10^−12 M for curve fitting.
(§2) using the GraphPad Prism4 program based on a sigmoidal dose-response equation.

human HDAC8 = molecular target: T1, human HDAC8 (Homo sapiens, UniProt Q9BY41); experiment: In vitro inhibitory activity on purified recombinant HDAC8 (fluorogenic peptide assay, Reaction Biology Corp.)
T1 sequence (Q9BY41 1-377): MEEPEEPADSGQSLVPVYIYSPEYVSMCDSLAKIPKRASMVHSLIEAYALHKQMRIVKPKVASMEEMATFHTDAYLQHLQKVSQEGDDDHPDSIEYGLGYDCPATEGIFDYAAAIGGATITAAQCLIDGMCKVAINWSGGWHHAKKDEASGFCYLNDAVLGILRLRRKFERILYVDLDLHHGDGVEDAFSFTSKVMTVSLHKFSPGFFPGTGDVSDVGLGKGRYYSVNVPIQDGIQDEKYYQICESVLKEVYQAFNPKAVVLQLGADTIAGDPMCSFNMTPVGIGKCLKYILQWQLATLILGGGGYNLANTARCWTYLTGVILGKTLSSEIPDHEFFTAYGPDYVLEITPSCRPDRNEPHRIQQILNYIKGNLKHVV
Description: as §1, §2

human HDAC6 = molecular target: T2, human HDAC6 (Homo sapiens, UniProt Q9UBN7); experiment: In vitro inhibitory activity on purified recombinant HDAC6 (fluorogenic peptide assay, Reaction Biology Corp.); format: biochemical; conditions: for selectivity for HDAC6 with respect to HDAC1: HDAC6 vs HDAC1, from the IC50 values of Table 2; for selectivity for HDAC6 with respect to HDAC8: HDAC6 vs HDAC8, from the IC50 values of Table 2; for IC50: purified recombinant enzyme, RHKK-Ac-AMC substrate, singlet 10-dose, 3-fold serial dilution
T2 construct: purchased Reaction Biology Corp. (contract assay)
T2 sequence (Q9UBN7 1-1215): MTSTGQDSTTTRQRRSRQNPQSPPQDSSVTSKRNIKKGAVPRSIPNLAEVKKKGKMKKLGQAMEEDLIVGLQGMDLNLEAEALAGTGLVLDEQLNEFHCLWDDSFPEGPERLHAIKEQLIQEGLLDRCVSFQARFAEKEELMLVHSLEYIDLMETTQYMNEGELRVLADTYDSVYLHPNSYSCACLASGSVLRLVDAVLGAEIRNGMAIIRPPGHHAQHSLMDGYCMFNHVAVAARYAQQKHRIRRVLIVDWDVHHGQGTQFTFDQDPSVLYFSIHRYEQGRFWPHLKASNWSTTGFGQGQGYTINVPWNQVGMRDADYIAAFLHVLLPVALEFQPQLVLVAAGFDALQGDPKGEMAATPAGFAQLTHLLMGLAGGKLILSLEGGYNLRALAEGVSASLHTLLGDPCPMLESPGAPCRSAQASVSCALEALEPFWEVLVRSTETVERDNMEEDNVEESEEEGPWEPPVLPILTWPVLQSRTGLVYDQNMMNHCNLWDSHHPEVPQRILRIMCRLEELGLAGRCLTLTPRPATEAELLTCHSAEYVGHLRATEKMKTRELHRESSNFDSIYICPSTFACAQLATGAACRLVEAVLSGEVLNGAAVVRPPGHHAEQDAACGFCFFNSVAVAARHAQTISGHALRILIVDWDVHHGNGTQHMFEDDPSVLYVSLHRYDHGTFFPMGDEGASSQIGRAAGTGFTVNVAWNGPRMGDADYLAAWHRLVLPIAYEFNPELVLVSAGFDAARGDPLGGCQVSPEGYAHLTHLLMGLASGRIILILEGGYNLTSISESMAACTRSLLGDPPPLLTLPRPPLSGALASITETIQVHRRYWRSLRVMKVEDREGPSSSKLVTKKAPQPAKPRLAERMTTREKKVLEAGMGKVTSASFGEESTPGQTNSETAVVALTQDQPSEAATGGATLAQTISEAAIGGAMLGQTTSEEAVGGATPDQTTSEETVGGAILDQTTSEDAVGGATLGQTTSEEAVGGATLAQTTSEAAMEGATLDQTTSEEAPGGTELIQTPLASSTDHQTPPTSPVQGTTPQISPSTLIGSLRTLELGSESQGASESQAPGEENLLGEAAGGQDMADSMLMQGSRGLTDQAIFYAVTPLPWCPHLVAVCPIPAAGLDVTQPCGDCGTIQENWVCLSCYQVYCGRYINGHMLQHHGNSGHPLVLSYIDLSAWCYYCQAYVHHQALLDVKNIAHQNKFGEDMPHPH
Description: Figure S1. […] All compounds were tested in singlet
IC50 values were calculated
Figure S2. […] All compounds were tested in singlet
Figure S3. […] All compounds were tested in singlet

[1] = known quinazoline-capped inhibitors, Fig. 1

Chain of human HDAC1 (Q13547 whole entry): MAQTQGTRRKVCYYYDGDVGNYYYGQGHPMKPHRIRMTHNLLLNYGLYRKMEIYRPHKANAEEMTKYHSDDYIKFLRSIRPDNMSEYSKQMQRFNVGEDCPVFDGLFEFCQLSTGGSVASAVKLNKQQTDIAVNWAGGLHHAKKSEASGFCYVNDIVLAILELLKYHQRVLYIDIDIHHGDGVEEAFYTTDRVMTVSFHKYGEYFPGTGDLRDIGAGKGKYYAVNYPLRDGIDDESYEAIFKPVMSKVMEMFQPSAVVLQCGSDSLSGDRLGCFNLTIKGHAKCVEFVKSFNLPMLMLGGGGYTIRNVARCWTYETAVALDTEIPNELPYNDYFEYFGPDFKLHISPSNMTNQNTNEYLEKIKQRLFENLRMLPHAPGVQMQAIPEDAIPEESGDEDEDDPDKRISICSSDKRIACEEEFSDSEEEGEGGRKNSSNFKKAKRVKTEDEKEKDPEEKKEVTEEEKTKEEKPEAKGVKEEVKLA

melting point	IC50 (human HDAC1) [nM]	IC50 (human HDAC8) [nM]	selectivity for HDAC6 with respect to HDAC1 (human HDAC6)	selectivity for HDAC6 with respect to HDAC8 (human HDAC6)	IC50 (human HDAC6) [nM]	Compound	IC50 (HDAC6; [1]) [nM]	further results
–	–	–	–	–	–	COc1ccc(N(C)c2nc(C)nc3ccccc23)cc1OCCCC(=O)NO [Compound 1]	17	–
–	–	–	–	–	–	COc1ccc(N(C)c2nc(C)nc3ccccc23)cc1NC(=O)CCC(=O)NO [Compound 2]	16	–
–	–	–	–	–	–	COc1ccc(N(C)c2nc(C)nc3ccccc23)cc1NC(=O)CCCC(=O)NO [Compound 3]	35	–
–	–	–	–	–	–	COc1cc2nc(NCCCCCCC(=O)NO)nc(NC3CCN(C(C)C)CC3)c2cc1OC [Compound 5]	–	IC50 (HDAC6; most active quinazoline inhibitor reported so far): 12 nM
< 267 °C (dec.)	6080	653	more than 12 000 fold	> 1000 fold	0.5	Nc1nc2c3ccc(Cc4ccc(C(=O)NO)cc4)cc3nc(Cc3ccc4c(c3)OCO4)n2n1 [Compound 11a, 4-((2-Amino-5-(benzo[d][1,3]dioxol-5-ylmethyl)-[1,2,4]triazolo[1,5-c]quinazolin-8-yl)methyl)-N-hydroxybenzamide]	–	–
< 264 °C (dec.)	1820	1560	> 18 000 fold	> 15 000 fold	0.1	Nc1n[nH]c(-c2cc(Cc3ccc(C(=O)NO)cc3)ccc2NC(=O)Cc2ccc3c(c2)OCO3)n1 [Compound 18, 4-(3-(3-Amino-1H-1,2,4-triazol-5-yl)-4-(2-(benzo[d][1,3]dioxol-5-yl)acetamido)benzyl)-N-hydroxybenzamide]	–	–
